In patent publication US20060014785A1, “BICYCLIC, SUBSTITUTED TRIAZOLES AS MODULATORS OF PPAR AND METHODS OF THEIR PREPARATION” (Metabolex, Inc., priority 2004, published 2006):

Legend:
Format in all cases: cell-based
mouse PPAR α = molecular target: T1, mouse PPAR α (Mus musculus, UniProt P23204); assay: PPAR alpha transactivation (GAL4 chimeric receptor luciferase reporter) assay; settings: pFR-Luc reporter, HEK293T cells, 20 hours incubation, read-out: Gene Activation Assay: EC50 (<10 μM) PPAR alpha
T1 construct: expressed in transfected cells; host or cells: HEK293T
T1 sequence (P23204 239-466 limits assumed): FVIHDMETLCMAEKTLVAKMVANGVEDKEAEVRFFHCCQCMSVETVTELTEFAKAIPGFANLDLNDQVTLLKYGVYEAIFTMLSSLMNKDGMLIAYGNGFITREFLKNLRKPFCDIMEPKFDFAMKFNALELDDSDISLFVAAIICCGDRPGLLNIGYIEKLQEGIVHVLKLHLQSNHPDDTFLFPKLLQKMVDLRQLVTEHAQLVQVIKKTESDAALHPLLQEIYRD
Excerpt: (§1) Measurement of PPARγ, δ, and α Transactivation Activity.
(§2) Chimeric receptors were constructed in which the yeast transcription factor GAL4 DNA binding domain was fused to the ligand binding domain of either mouse PPARγ, mouse PPARδ or mouse PPAR α in order to assess the ability of the compounds of the present invention to activate gene expression in a PPAR-dependent manner. The chimeric receptor expression plasmids (GAL4-mPPARγ, GAL4-mPPAR δ and GAL4-PPAR α) and the reporter plasmid containing 5×GAL4 binding site (pFR-Luc, obtained from Stratagene) were transfected into HEK293T cells using the Lipofectamine 2000 reagent (Invitrogen), according to the manufacturers instructions. Six hours after transfection, the culture medium was renewed and the cells were incubated for 20 hours in presence of either 1) DMSO (vehicle), 2) a compound of the invention or 3) a reference compound for comparison. Rosiglitazone (obtained from WDF Pharma) was used as a reference compound for the PPARγassay; GW501516 (prepared as described in Sznaidman et al. Bioorg. Med. Chem. Lett. (2003) 13:1517-1521) was used as a reference compound for the PPAR δ assay and GW7647 (obtained from Sigma) was used as a reference compound for the PPAR α assay. Luciferase activity was measured as a reporter of gene expression. Luciferase activity on the cell lysates using the Steady-Glo reagent was measured according to the manufacturers instructions.

mouse PPARδ = molecular target: T2, mouse PPARδ (Mus musculus, UniProt P35396); assay: PPAR delta transactivation (GAL4 chimeric receptor luciferase reporter) assay; settings: GAL4-mPPAR δ chimeric receptor, pFR-Luc reporter, HEK293T cells, 20 hours incubation; read-out: Gene Activation Assay: EC50 (<10 μM) PPAR delta
T2 construct: expressed in transfected cells; host or cells: HEK293T
T2 sequence (P35396 210-438 limits assumed): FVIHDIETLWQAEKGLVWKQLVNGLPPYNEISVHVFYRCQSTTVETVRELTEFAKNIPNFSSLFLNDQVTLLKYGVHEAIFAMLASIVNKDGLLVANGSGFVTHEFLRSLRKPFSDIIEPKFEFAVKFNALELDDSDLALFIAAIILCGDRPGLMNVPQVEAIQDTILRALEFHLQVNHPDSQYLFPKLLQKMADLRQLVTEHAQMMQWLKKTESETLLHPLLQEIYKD
Excerpt: as §1, §2

mouse PPARγ = molecular target: T3, mouse PPARγ (Mus musculus, UniProt P37238); assay: PPAR gamma transactivation (GAL4 chimeric receptor luciferase reporter) assay; settings: GAL4-mPPARγ chimeric receptor, pFR-Luc reporter, HEK293T cells, 20 hours incubation; read-out: Gene Activation Assay: EC50 (<10 μM) PPAR gamma
T3 construct: expressed in transfected cells; host or cells: HEK293T
T3 sequence (P37238 238-503 limits assumed): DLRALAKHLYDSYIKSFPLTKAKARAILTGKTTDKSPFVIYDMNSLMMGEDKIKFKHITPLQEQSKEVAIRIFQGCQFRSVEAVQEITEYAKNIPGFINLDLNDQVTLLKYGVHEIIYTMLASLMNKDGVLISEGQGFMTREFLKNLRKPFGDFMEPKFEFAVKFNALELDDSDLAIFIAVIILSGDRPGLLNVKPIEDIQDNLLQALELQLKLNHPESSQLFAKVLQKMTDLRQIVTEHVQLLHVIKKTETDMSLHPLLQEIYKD
Excerpt: as §1, §2

Structure (SMILES) | EC50 (mouse PPAR α) | EC50 (mouse PPARδ) | EC50 (mouse PPARγ)
Cc1nn(-c2ccc(C(F)(F)F)cc2)nc1COc1ccc2ccn(CC(=O)O)c2c1 [Compound 130, {6-[5-Methyl-2-(4-trifluoromethyl-phenyl)-2H-[1,2,3]triazol-4-ylmethoxy]-indol-1-yl}-acetic acid] | < 10 µM | < 10 µM | < 10 µM
Cc1nn(-c2ccc(C(F)(F)F)cc2)nc1COc1ccc2c(c1)OCC2CC(=O)O (stereo not drawn) [Compound 700, {6-[5-Methyl-2-(4-trifluoromethyl-phenyl)-2H-[1,2,3]triazol-4-ylmethoxy]-2,3-dihydro-benzofuran-3-yl}-acetic acid] | > 10 µM | < 10 µM | > 30 µM
Cc1nn(-c2ccc(C(F)(F)F)cc2)nc1COc1ccc2c(CC(=O)O)coc2c1 [Compound 160, {6-[5-Methyl-2-(4-trifluoromethyl-phenyl)-2H-[1,2,3]triazol-4-ylmethoxy]-benzofuran-3-yl}-acetic acid] | > 10 µM | < 10 µM | > 10 µM
Cc1nn(-c2ccc(C(F)(F)F)cc2)nc1COc1ccc2c(ccn2CC(=O)O)c1 [Compound 20, {5-[5-Methyl-2-(4-trifluoromethyl-phenyl)-2H-[1,2,3]triazol-4-ylmethoxy]-indol-1-yl}-acetic acid] | > 10 µM | < 10 µM | > 30 µM
